From patent publication EP0147851B1, “Water soluble forms of polyene antibiotics, and process for preparing them” (priority 1983, dated 1985)
Where two headings read alike, the source gives them in different places.

What was measured:
[1] = tested on: Mäusen; conditions: i.p. an Mäusen; cited from earlier work
[2] = tested on: Weibliche CFY-Ratten; experiment: Mortality after subcutaneous administration in rats; format: in vivo; conditions: subcutan, 302 mg/kg, 10 Tiere, observation one week
Source text: • a) Die Resorption von Nystatin aus per os verabreichtem Nystatin-γ-CD-Komplex Die Resorption des Wirkstoffes wurde an Mäusen, an einem durch intravenöse Applikation einer Suspension von Candida albicans hervorgerufenen Sepsismodell untersucht. Die Sepsis verursachte innerhalb von 2-3 Tagen 100 %ige Mortalität. Den Versuchstieren wurde per os gemäß Beispiel 3 hergestellte, 8 % Nystatin enthaltende Komplex verabreicht. In einem Parallelversuch wurde Nystatin intravenös appliziert. Für beide Gruppen wurde die auf die unbehandelte Kontrolle bezogene Verlängerung der Überlebensdauer ermittelt. [formula] Wenn man diejenigen in Form des Komplexes per os verabreichten Nystatindosen mit denjenigen i.v. applizierten Nystatindosen vergleicht, die eine etwa gleiche Verlängerung der Überlebensdauer bewirkten (Tabelle 9, letzte Spalte),so läßt sich errechnen, daß aus dem Komplex durchschnittlich 6,2 % des Wirkstoffes in die Blutbahn gelangten. Bei den höchsten Dosen (i.v. 1,56 mg/kg, p.o. 25 mg/kg) ist das Zurückfallen der Überlebensdauer bereits auf die schwache Toxizität des Nystatins zurückzuführen. • b) Die Resorption von Nystatin aus subcutan appliziertem Nystatin-γ-CD-Komplex Weibliche CFY-Ratten eines durchschnittlichen Gewichtes von 180 g wurden mit Nystatin, mit Nystatin-γ-CD-Komplex (Wirkstoffgehalt9 8 %) beziehungsweise mit γ-CD behandelt. […]

[3] = Solubility of Flavofungin in aqueous γ-CD solutions (spectrophotometric); format: physicochemical; conditions: 4 % γ-CD versus water
Experimental: Der erste Beweis für die Wechselwirkung zwischen Flavofungin und γ-Cyclodextrin ist der beträchtliche Anstieg der Löslichkeit des Flavofungins in wäßrigen γ-Cyclodextrinlösungen. Zur Untersuchung der Löslichkeit wurden wäßrige γ-CD-Lösungen unterschiedlicher Konzentration hergestellt: die Lösungen enthielten 0, 1, 2, 3, 4, 5, 7,5 beziehungsweise 10 % γ-CD. Zu je 1 ml der Lösungen wurden 5 mg festes Flavofungin gegeben. Die Lösungen wurden bei 25 °C 3 Stunden lang intensiv geschüttelt.
Die Lösungen wurden klarfiltriert, dann wurde spektrophotometrisch die Menge des in Lösung gegangenen Flavofungins ermittelt. Die Messungen zeigten, daß sich das Flavofungin am besten in 4 % γ-CD enthaltenden wäßrigen Lösungen löst; unter den Bedingungen der Untersuchung können Konzentrationen von etwa 4 mg/ml erzielt werden. […] Eine weitere Erhöhung der γ-CD-Konzentration steigert die Löslichkeit des Flavofungins nicht weiter. Die Ergebnisse der Löslichkeitsuntersuchungen sind in der Tabelle 1 zusammengefaßt.
Die aus dem anfänglich linearen Abschnitt der bei 25 °C aufgenommenen Löslichkeitsisotherme berechnete scheinbare Stabilitätskonstante des Komplexes beträgt etwa 3230.
Die maximale Löslichkeit in 4 %iger γ-CD-Lösung wurde auch bei verschiedenen Temperaturen untersucht. Die Flavofunginkonzentration betrug bei 10 °C 3,3 mg/ml, bei 30 °C 4,1 mg/ml und bei 40 °C 3,8 mg/ml.

[4] = Heat and storage stability of the solid substances (spectrophotometric content); format: physicochemical; conditions: 60 °C, 24 Stunden, not protected from light or air
Experimental: Zur Untersuchung der Wärmestabilität des Flavofungin-γ-CD-Komplexes wurden die Substanzen in 1 mm Schichtdicke auf Uhrgläsern ausgebreitet und weder vor Licht noch vor Luft geschützt bei Raumtemperatur beziehungsweise bei 60 °C im Trockenschrank gelagert. Die zu unterschiedlichen Zeitpunkten genommenen Proben wurden spektrophotometrisch analysiert.
Der Wirkstoffgehalt des Flavofungin-γ-CD-Komplexes blieb jedoch auch nach 50 Tagen zu etwa 75 % erhalten. Ein 10 % Flavofungin enthaltendes, mit Glucose bereitetes physikalisches Gemisch verlor bei 14tägiger Lagerung bei Raumtemperatur 50 % seines Wirkstoffgehaltes. Der Wirkstoffgehalt des Komplexes war jedoch auch nach 50 Tagen noch zu mehr als 95 % erhalten. Die in einem verschlossenen Gefäß bei +4 °C 7 Monate lang gelagerte Probe zeigte keinen Verlust an Wirkstoff. Die Meßergebnisse sind in der Tabelle 4 zusammengestellt.
(§1) Auch mit diesem Produkt wird die im Beispiel 1 beschriebene Untersuchung der Wärmestabilität vorgenommen. Dabei wurde gefunden, daß der Komplex, ähnlich wie der lyophilisierte Komplex, eine erhöhte Wärmestabilität zeigt und seine antifungale Wirkung nicht geringer wird.

[5] = tested on: S. oerevisiae, C. albicans, C. crusei und C. pseudotropicals; experiment: Microbiological potency after storage (MIC); format: cell-based; conditions: sample stored under nitrogen in the freezer
Experimental: Auch die mikrobiologische Wertmessung bestätigte, daß das Flavofungin in Form des γ-CD-Komplexes viel stabiler ist. Flavofungin-γ-CD-Komplex wurde bei Raumtemperatur und bei 60°C gelagert, und danach war die antifungale Wirkung genau so groß wie ursprünglich.
as §1

[6] = Raumtemperatur an der Luft, innerhalb von zwei Wochen; cited from earlier work
[7] = Solubility of Amphotericin B in aqueous γ-CD solutions (spectrophotometric); format: physicochemical; conditions: for Amphotericin B Konzentration: 37 °C, 2 Stunden geschüttelt
Experimental: Das ist ein weiterer Beweis dafür, daß das Amphotericin in den γ-CD-haltigen wäßrigen Lösungen in molekular disperser Form vorliegt.
Auch für Amphotericin B wurde die Löslichkeit als Funktion der γ-CD-Konzentration ermittelt. Zu wäßrigen γ-CD-Lösungen unterschiedlicher Konzentration (0, 2, 4, 5, 6, 8, 10 beziehungsweise 12 %) wurden 5 mg/ml Amphotericin B gegeben, und die bei 37 °C thermostatisierten Lösungen wurden 2 Stunden lang intensiv geschüttelt. Die Lösungen wurden klarfiltriert, und die Menge des in Lösung gegangenen Amphotericin B wurde spektrophotometrisch bestimmt. Die Ergebnisse sind in der Tabelle 3 zusammengestellt.

[8] = tested on: aus menschlichem Blut hergestellten Suspensionen roter Blutkörperchen; conditions: human
Source text: Dyn. 6, 408-414 [1983]) untersucht. Die Ergebnisse werden in Form der zu 50 %iger Hämolyse gehörenden Konzentrationen (EH₅₀) angegeben. […] Auch die hämolytische Wirkung einer der im Komplex gebundenen γ-CD-Menge entsprechenden Menge γ-Cyclodextrin wurde untersucht.

[9] = tested on: aus menschlichem Blut hergestellten Suspensionen roter Blutkörperchen; conditions: cited from earlier work

## Methylester von Amphotericin B
[1]
  LD₅₀: 1320 mg/kg

## OC[C@H]1O[C@@H]2O[C@H]3[C@H](O)[C@@H](O)[C@@H](O[C@H]4[C@H](O)[C@@H](O)[C@@H](O[C@H]5[C@H](O)[C@@H](O)[C@@H](O[C@H]6[C@H](O)[C@@H](O)[C@@H](O[C@H]7[C@H](O)[C@@H](O)[C@@H](O[C@H]8[C@H](O)[C@@H](O)[C@@H](O[C@H]9[C@H](O)[C@@H](O)[C@@H](O[C@H]1[C@H](O)[C@H]2O)O[C@@H]9CO)O[C@@H]8CO)O[C@@H]7CO)O[C@@H]6CO)O[C@@H]5CO)O[C@@H]4CO)O[C@@H]3CO [γ-CD, γ-Cyclodextrin]
[2]
  Mortalität (animals that died): kein einziges

## Flavofungin
[3]
  Anstieg der Löslichkeit: etwa das Achtzigfache
[4]
  Zersetzung of the solid: starke Zersetzung
[5]
  MIC: 25 µg/mL
[6]
  Verlust der Aktivität: 50%

## C[C@@H]1[C@H](O)[C@@H](C)/C=C/C=C/C=C/C=C/C=C/C=C/C=C/[C@H](O[C@@H]2O[C@H](C)[C@@H](O)[C@H](N)[C@@H]2O)C[C@@H]2O[C@](O)(C[C@@H](O)C[C@@H](O)[C@H](O)CC[C@@H](O)C[C@@H](O)CC(=O)O[C@H]1C)C[C@H](O)[C@H]2C(=O)O [Amphotericin B]
[7]; 5 %ige γ-CD-Lösung
  Löslichkeit relative to Löslichkeit in Wasser: etwa das Hundertfache
[7]; 10 %ige γ-CD-Lösung
  Löslichkeit relative to Löslichkeit in Wasser: etwa das Zweihundertfache
[7]; Zusatz von 0,9 Gew.-% Kochsalz
  Löslichkeit in γ-CD-haltigen Lösungen on addition of salt: nicht verändert
[7]; γ-CD-Konzentration 0 %
  Amphotericin B Konzentration: 0,003 mg/ml
[7]; γ-CD-Konzentration 2 %
  Amphotericin B Konzentration: 0,12 mg/ml
[7]; γ-CD-Konzentration 4 %
  Amphotericin B Konzentration: 0,25 mg/ml
[7]; γ-CD-Konzentration 5 %
  Amphotericin B Konzentration: 0,30 mg/ml
[7]; γ-CD-Konzentration 6 %
  Amphotericin B Konzentration: 0,36 mg/ml
[7]; γ-CD-Konzentration 8 %
  Amphotericin B Konzentration: 0,51 mg/ml
[7]; γ-CD-Konzentration 10 %
  Amphotericin B Konzentration: 0,65 mg/ml
[7]; γ-CD-Konzentration 12 %
  Amphotericin B Konzentration: 0,65 mg/ml
[8]
  EH₅₀ (concentration for 50 % haemolysis): 4,8 µg/ml
[8]; 25 µg/ml
  Hämolyse: 92,4%
[9]
  EH₅₀ (concentration for 50 % haemolysis): 5 µg/mL
